The source of these data is BindingDB's records for PubMed 37738648 (Astrazeneca, 2023).

In test [1] the target is T1, Tyrosine-protein kinase JAK3 (Homo sapiens, UniProt P52333).
T1 sequence (P52333 whole entry): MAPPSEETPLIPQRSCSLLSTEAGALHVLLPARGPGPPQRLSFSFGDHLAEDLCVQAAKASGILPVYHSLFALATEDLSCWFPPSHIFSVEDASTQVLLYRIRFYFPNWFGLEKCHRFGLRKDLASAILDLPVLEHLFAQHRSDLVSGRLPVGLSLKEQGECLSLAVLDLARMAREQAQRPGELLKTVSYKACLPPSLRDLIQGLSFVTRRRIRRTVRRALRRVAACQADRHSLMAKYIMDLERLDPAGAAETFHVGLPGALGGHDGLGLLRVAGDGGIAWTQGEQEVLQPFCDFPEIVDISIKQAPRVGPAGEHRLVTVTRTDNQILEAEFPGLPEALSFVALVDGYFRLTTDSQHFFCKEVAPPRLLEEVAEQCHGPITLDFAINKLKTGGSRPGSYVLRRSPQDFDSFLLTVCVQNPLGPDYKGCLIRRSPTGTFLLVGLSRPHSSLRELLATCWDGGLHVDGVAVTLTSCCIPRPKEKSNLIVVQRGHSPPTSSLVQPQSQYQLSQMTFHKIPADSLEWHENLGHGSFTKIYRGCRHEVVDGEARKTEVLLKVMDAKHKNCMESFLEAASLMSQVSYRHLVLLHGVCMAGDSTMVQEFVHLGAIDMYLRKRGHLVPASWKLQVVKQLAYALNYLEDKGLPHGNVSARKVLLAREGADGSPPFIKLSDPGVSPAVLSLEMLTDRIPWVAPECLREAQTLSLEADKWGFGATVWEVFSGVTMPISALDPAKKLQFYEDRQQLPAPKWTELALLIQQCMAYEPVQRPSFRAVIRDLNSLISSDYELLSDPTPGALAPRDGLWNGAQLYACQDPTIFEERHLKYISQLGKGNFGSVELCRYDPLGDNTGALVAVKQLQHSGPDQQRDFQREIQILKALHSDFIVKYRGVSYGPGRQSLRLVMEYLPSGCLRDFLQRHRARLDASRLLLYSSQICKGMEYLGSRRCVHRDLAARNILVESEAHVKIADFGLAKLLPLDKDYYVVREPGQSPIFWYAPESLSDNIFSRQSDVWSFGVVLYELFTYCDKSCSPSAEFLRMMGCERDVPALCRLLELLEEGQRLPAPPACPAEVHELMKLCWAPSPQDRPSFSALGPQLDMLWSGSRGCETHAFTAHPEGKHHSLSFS
Briefly: Inhibition of N-terminal GST-tagged human recombinant JAK3 (781 to 1124 residues) expressed in insect cells using 5FAM-GEEPLYWSFPAKKK-NH2 peptide as substrate incubated for 10 mins measured after 90 mins in presence of ATP by caliper mobility shift assay.

The target in test [2] is Tyrosine-protein kinase JAK1 (Homo sapiens, UniProt P23458). The test is described as follows: Inhibition of N-terminal GST-tagged human recombinant JAK1 (866 to 1154 residues) expressed in insect cells using FITC-C6-KKHTDDGYMPMSPGVA-NH peptide as substrate incubated for 10 mins measured after 90 mins in presence of ATP by caliper mobility shift assay.
Sequence of Tyrosine-protein kinase JAK1 (P23458 whole entry, the tested form may be a part): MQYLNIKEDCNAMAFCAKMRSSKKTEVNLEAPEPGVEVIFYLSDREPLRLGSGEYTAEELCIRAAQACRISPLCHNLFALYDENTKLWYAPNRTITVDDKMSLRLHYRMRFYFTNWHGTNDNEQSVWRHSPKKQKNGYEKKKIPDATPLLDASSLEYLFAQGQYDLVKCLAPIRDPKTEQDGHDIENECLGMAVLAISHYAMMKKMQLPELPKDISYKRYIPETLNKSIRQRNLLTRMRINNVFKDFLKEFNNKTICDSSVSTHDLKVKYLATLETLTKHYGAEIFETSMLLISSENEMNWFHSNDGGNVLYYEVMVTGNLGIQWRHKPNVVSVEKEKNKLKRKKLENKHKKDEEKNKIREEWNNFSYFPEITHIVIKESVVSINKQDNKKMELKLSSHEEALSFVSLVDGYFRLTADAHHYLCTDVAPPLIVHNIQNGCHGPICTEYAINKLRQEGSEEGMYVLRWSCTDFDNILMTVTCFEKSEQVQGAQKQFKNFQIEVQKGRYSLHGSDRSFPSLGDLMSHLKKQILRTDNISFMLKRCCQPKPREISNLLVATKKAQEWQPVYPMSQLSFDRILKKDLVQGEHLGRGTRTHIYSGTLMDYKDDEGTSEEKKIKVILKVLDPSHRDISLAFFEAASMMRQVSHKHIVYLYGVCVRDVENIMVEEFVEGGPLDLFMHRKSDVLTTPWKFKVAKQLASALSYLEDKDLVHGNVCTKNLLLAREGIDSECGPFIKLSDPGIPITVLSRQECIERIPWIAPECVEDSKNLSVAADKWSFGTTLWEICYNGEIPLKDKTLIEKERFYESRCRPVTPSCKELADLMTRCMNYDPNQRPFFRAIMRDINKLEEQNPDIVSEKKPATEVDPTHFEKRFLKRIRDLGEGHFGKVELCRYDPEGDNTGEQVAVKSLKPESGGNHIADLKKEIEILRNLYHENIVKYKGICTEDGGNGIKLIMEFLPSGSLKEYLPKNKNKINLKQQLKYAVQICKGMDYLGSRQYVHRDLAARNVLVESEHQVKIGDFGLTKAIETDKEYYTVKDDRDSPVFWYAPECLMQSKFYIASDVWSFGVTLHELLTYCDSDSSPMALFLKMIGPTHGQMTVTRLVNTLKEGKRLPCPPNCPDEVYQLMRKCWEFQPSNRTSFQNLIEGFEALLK

By IC50 is commonly meant the concentration needed to halve the response being measured. With `CC[C@H](C(=O)Nc1cccc2c(-c3nc(Nc4cccc(S(C)(=O)=O)c4F)ncc3F)c[nH]c12)N1CCN(C)CC1` [US10961228, Example 38], the half-inhibitory concentration (IC50) in test [1] is over 30 µM. Take `COC[C@H](C(=O)Nc1cccc2c(-c3nc(Nc4cccc(S(C)(=O)=O)c4F)ncc3C)c[nH]c12)N1CCN(C)CC1` [US10961228, Example 16]: the IC50 was under 0.003 µM in test [2] and over 30 µM in test [1].

For `COC[C@H](C(=O)Nc1cccc2c(-c3nc(Nc4cccc(S(C)(=O)=O)c4F)ncc3F)c[nH]c12)N1CCN(C)CC1` [US10961228, Example 35], the IC50 in test [2] was under 0.003 µM; in test [1], over 30 µM. Take `Cc1cnc(Nc2cccc(S(C)(=O)=O)c2F)nc1-c1c[nH]c2c(NC(=O)[C@@H](C)N3CCN(C)CC3)cccc12` [US10961228, Example 2]: the 50% inhibitory concentration (IC50) in test [1] was over 30 µM. Take `CC[C@H](C(=O)Nc1cccc2c(-c3nc(Nc4cccc(S(C)(=O)=O)c4F)ncc3C)c[nH]c12)N1CCN(C)CC1` [US10961228, Example 14]: the results for the IC50 in test [2] and in test [1] were under 0.003 µM and over 30 µM, respectively.
